# From US8609653B2, “Azaindole compounds and methods for treating HIV” (priority 2011, dated 2013)
# Where a name gives a salt, the structure may show the parent alone.
# Tested on: HIV
# Test: MT4 assay: antiviral HIV activity in MT-4 cells
# Type: cell-based
# Details: Human immunodeficiency virus 1, MT4, 96 h, read-out: HIV MT4 Assay IC50 (μM), HTLV-1 transformed cell line MT-4; read-out 96 hours later with cell titer glo; 10 point dose response
# Outline: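 Compounds tested in HTLV-1-transformed MT-4 cells for protection from HIV, with cytotoxicity run in parallel under the same conditions; CellTiter-Glo luminescence read 96 h later. IC50 from 10-point, 3–4-fold serial dilutions spanning >1000-fold, % inhibition relative to no-compound control, fitted by four-parameter logistic.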
row,Compound,IC50 [µM]
1,"Cc1nc2c(ccn2[C@@H](C)c2ccc(F)cc2)c(-c2ccc3c(c2)CCCO3)c1[C@@H](OC(C)(C)C)C(=O)O [Example 84, (R)-2-(tert-butoxy)-2-(4-(chroman-6-yl)-1-((S)-1-(4-fluorophenyl)ethyl)-6-methyl-1H-pyrrolo[2,3-b]pyridin-5-yl)acetic acid]",0.124
2,"Cc1nc2c(ccn2[C@@H](C)c2ccc(F)cc2)c(-c2ccc3c(c2)CCCO3)c1[C@H](OC(C)(C)C)C(=O)O [Example 85, (S)-2-(tert-butoxy)-2-(4-(chroman-6-yl)-1-((S)-1-(4-fluorophenyl)ethyl)-6-methyl-1H-pyrrolo[2,3-b]pyridin-5-yl)acetic acid]",0.955
3,"Cc1nc2c(ccn2Cc2cccc(F)c2F)c(-c2ccc3c(c2)CCCO3)c1[C@@H](OC(C)(C)C)C(=O)O [Example 86, (R)-2-(tert-butoxy)-2-(4-(chroman-6-yl)-1-(2,3-difluorobenzyl)-6-methyl-1H-pyrrolo[2,3-b]pyridin-5-yl)acetic acid]",50
4,"Cc1ccc(-c2c([C@H](OC(C)(C)C)C(=O)O)c(C)nc3c2ccn3Cc2ccccc2F)cc1 [Example 88, (S)-2-(tert-butoxy)-2-(1-(2-fluorobenzyl)-6-methyl-4-(p-tolyl)-1H-pyrrolo[2,3-b]pyridin-5-yl)acetic acid]",0.107
5,"Cc1nc2c(ccn2Cc2ccc(F)cc2Cl)c(-c2ccc(Cl)cc2)c1[C@H](OC(C)(C)C)C(=O)O [Example 89, (S)-2-(tert-butoxy)-2-(1-(2-chloro-4-fluorobenzyl)-4-(4-chlorophenyl)-6-methyl-1H-pyrrolo[2,3-b]pyridin-5-yl)acetic acid]",0.065
6,"Cc1nc2c(ccn2Cc2ccc(F)cc2)c(-c2ccc(Cl)cc2F)c1C(OC(C)(C)C)C(=O)O (stereo not drawn) [Example 90, 2-(tert-Butoxy)-2-(4-(4-chloro-2-fluorophenyl)-1-(4-fluorobenzyl)-6-methyl-1H-pyrrolo[2,3-b]pyridin-5-yl)acetic acid]",0.48
7,"Cc1nc2c(ccn2Cc2ccc(F)cc2)c(-c2ccccc2F)c1C(OC(C)(C)C)C(=O)O (stereo not drawn) [Example 91, 2-(tert-Butoxy)-2-(1-(4-fluorobenzyl)-4-(2-fluorophenyl)-6-methyl-1H-pyrrolo[2,3-b]pyridin-5-yl)acetic acid]",0.168
8,"COc1c(C)cc(-c2c(C(OC(C)(C)C)C(=O)O)c(C)nc3c2ccn3Cc2ccc(F)cc2)cc1C (stereo not drawn) [Example 92, 2-(tert-Butoxy)-2-(1-(4-fluorobenzyl)-4-(4-methoxy-3,5-dimethylphenyl)-6-methyl-1H-pyrrolo[2,3-b]pyridin-5-yl)acetic acid]",0.98
9,"Cc1ccc(-c2c(C(OC(C)(C)C)C(=O)O)c(C)nc3c2ccn3Cc2ccc(F)cc2)c(F)c1 (stereo not drawn) [Example 93, 2-(tert-Butoxy)-2-(4-(2-fluoro-4-methylphenyl)-1-(4-fluorobenzyl)-6-methyl-1H-pyrrolo[2,3-b]pyridin-5-yl)acetic acid]",0.046
10,"Cc1cc(Cl)ccc1-c1c(C(OC(C)(C)C)C(=O)O)c(C)nc2c1ccn2Cc1ccc(F)cc1 (stereo not drawn) [Example 94, 2-(tert-Butoxy)-2-(4-(4-chloro-2-methylphenyl)-1-(4-fluorobenzyl)-6-methyl-1H-pyrrolo[2,3-b]pyridin-5-yl)acetic acid, Trifluoroacetic acid salt]",0.11
11,"Cc1nc2c(ccn2Cc2ccc(F)c(F)c2)c(-c2ccc(F)cc2)c1[C@H](OC(C)(C)C)C(=O)O [Example 102, (S)-2-(tert-Butoxy)-2-(1-(3,4-difluorobenzyl)-4-(4-fluorophenyl)-6-methyl-1H-pyrrolo[2,3-b]193pyridine-5-yl)acetic acid]",0.367
12,"COc1ccc(-c2c([C@H](OC(C)(C)C)C(=O)O)c(C)nc3c2ccn3Cc2ccc(F)c(F)c2)cc1C [Example 103, (S)-2-(tert-Butoxy)-2-(1-(3,4-difluorobenzyl)-4-(4-methoxy-3-methylphenyl)-6-methyl-1H-pyrrolo[2,3-b]pyridin-5-yl)acetic acid]",0.81
13,"Cc1nc2c(ccn2Cc2ccc(F)c(F)c2)c(-c2ccc(F)c(Cl)c2)c1[C@H](OC(C)(C)C)C(=O)O [Example 105, (S)-2-(tert-Butoxy)-2-(4-(3-chloro-4-fluorophenyl)-1-(3,4-difluorobenzyl)-6-methyl-1H-pyrrolo[2,3-b]pyridin-5-yl)acetic acid]",1.42
14,"Cc1nc2c(ccn2Cc2ccc(F)c(F)c2)c(-c2ccc(Cl)c(F)c2)c1[C@H](OC(C)(C)C)C(=O)O [Example 106, (S)-2-(tert-Butoxy)-2-(4-(4-chloro-3-fluorophenyl)-1-(3,4-difluorobenzyl)-6-methyl-1H-pyrrolo[2,3-b]pyridin-5-yl)acetic acid]",0.1
15,"Cc1nc2c(c(-c3ccc4c(c3C)CCCO4)c1[C@H](OC(C)(C)C)C(=O)O)CCN2Cc1ccc(F)c(F)c1 [Example 107, (2S)(M)-2-(tert-Butoxy)-2-(1-(3,4-difluorobenzyl)-6-methyl-4-(5-methylchroman-6-yl)-2,3-dihydro-1H-pyrrolo[2,3-b]pyridin-5-yl)acetic acid, Trifluoroacetic acid salt]",0.008
16,"Cc1nc2c(ccn2Cc2ccc(F)c(F)c2)c(-c2ccc3c(c2)CCO3)c1[C@H](OC(C)(C)C)C(=O)O [Example 112, (S)-2-(tert-butoxy)-2-(1-(3,4-difluorobenzyl)-4-(2,3-dihydrobenzofuran-5-yl)-6-methyl-1H-pyrrolo[2,3-b]pyridin-5-yl)acetic acid]",0.011
17,"Cc1nc2c(ccn2Cc2ccc(F)c(F)c2)c(C2=CCC(C)(C)CC2)c1[C@H](OC(C)(C)C)C(=O)O [Example 114, (S)-2-(tert-butoxy)-2-(1-(3,4-difluorobenzyl)-4-(4,4-dimethylcyclohex-1-en-1-yl)-6-methyl-1H-pyrrolo[2,3-b]pyridin-5-yl)acetic acid]",0.08
18,"Cc1ccc(-c2c([C@H](OC(C)(C)C)C(=O)O)c(C)nc3c2ccn3Cc2ccc(F)c(F)c2)c(F)c1 [Example 115, (2S)-2-(tert-Butoxy)-2-(1-(3,4-difluorobenzyl)-4-(2-fluoro-4-methylphenyl)-6-methyl-1H-pyrrolo[2,3-b]pyridin-5-yl)acetic acid]",0.029
19,"Cc1nc2c(ccn2Cc2ccc(F)c(F)c2)c(-c2ccc3ncsc3c2)c1[C@H](OC(C)(C)C)C(=O)O [Example 117, (S)-2-(4-(Benzo[d]thiazol-6-yl)-1-(3,4-difluorobenzyl)-6-methyl-1H-pyrrolo[2,3-b]pyridin-5-yl)-2-(tert-butoxy)acetic acid, Trifluoroacetic acid salt]",0.036
20,"Cc1nc2c(ccn2Cc2ccc(F)c(F)c2)c(C2=CCCCC2)c1[C@H](OC(C)(C)C)C(=O)O [Example 120, (S)-2-(tert-butoxy)-2-(4-(cyclohex-1-en-1-yl)-1-(3,4-difluorobenzyl)-6-methyl-1H-pyrrolo[2,3-b]pyridin-5-yl)acetic acid]",0.15
21,"COc1cccc(F)c1Cn1ccc2c(-c3ccc4c(c3C)CCCO4)c([C@H](OC(C)(C)C)C(=O)O)c(C)nc21 [Example 121, (2S)-2-(tert-butoxy)-2-(1-(2-fluoro-6-methoxybenzyl)-6-methyl-4-(5-methylchroman-6-yl)-1H-pyrrolo[2,3-b]pyridin-5-yl)acetic acid]",0.002
